According to patent US9284323B2, “Naphthalene acetic acid derivatives against HIV infection” (Gilead Sciences, Inc., priority 2012, dated 2016):

System: HIV-IIIb
Assay: Test A: Antiviral Assays in MT4 Cells
Format: cell-based
Conditions: Human immunodeficiency virus 1, IIIB, MT4, 120 h, Table I; MT-4 cells infected with HIV-IIIb, 5 days incubation, CellTiter-Glo readout
Procedure: The antiviral properties of a compound disclosed herein may be determined using Test A described below.
Test A: Antiviral Assays in MT4 Cells
For the antiviral assay utilizing MT-4 cells, 0.4 μL of […] test concentration of 3-fold serially diluted compound in DMSO was added to 40 μL of cell growth medium (RPMI 1640, 10% FBS, 1% penicillin/Streptomycin, 1% L-Glutamine, 1% HEPES) in each well of 384-well assay plates (10 concentrations) in quadruplicate.
1 mL aliquots of 2×10e6 MT-4 cells are pre-infected for 1 and 3 hrs respectively, @ 37° C. with 25 μL (MT4) or of either cell growth medium (mock-infected) or a fresh 1:250 dilution of an HIV-IIIb concentrated ABI stock (0.004 m.o.i. for MT4 cells). Infected and uninfected cells are diluted in cell growth medium and 35 μL of 2000 (for MT4) cells is added to each well of the assay plates.
Assay plates were then incubated in a 37° C. incubator. After 5 days of incubation, 25 μl of 2× concentrated CellTiter-Glo™ Reagent (catalog # G7573, Promega Biosciences, Inc., Madison, Wis.) was added to each well of the assay plate. Cell lysis was carried out by incubating at room temperature for 2-3 min and then chemiluminescence was read using the Envision reader (PerkinElmer).

Going from `CCCCC(C)(C)O[C@H](C(=O)O)c1c(C)cc2ccccc2c1-c1ccc2c3c(ccnc13)CCO2` (atropisomer, axis not shown) [Example 30, (S)-2-((S)-1-(2,3-Dihydropyrano[4,3,2-de]quinolin-7-yl)-3-methylnaphthalen-2-yl)-2-(2-methylhexan-2-yloxy)acetic acid] to `Cc1ccc2c(-c3ccc4c5c(ccnc35)CCO4)c([C@H](OC(C)(C)C)C(=O)O)c(C)cc2c1` (atropisomer, axis not shown) [Example 16, (S)-2-tert-butoxy-2-((S)-1-(2,3-dihydropyrano[4,3,2-de]quinolin-7-yl)-3,6-dimethylnaphthalen-2-yl)acetic acid], the EC50 rises from 84 nM to 1740 nM (21-fold). The first is the more potent here.

First: Cc1ccc2cc(C)c([C@H](OC(C)(C)C)C(=O)O)c(-c3ccc4c5c(ccnc35)CCO4)c2c1 (atropisomer, axis not shown) [Example 15, (S)-2-tert-Butoxy-2-((R)-1-(2,3-dihydropyrano[4,3,2-de]quinolin-7-yl)-3,7-dimethylnaphthalen-2-yl)acetic acid]
Second: CCOc1c(C#N)ccc2c(-c3ccc4c5c(ccnc35)CCO4)c([C@H](OC(C)(C)C)C(=O)O)c(C)cc12 (atropisomer, axis not shown) [Example 22, (S)-2-tert-Butoxy-2-((R)-6-cyano-1-(2,3-dihydropyrano[4,3,2-de]quinolin-7-yl)-5-ethoxy-3-methylnaphthalen-2-yl)acetic acid]
The EC50 of the first is 2.4-fold higher: 34 nM for the first, 14 nM for the second. The second is the more potent here.

Compared with `Cc1cc2ccc(C#CC(C)(O)c3ccccc3)cc2c(-c2ccc(Cl)cc2)c1[C@H](OC(C)(C)C)C(=O)O` (stereo in doubt) [Example 14, (S)-2-tert-butoxy-2-(1-(4-chlorophenyl)-7-((R)-3-hydroxy-3-phenylbut-1-ynyl)-3-methylnaphthalen-2-yl)acetic acid], `Cc1cc2ccc(C#CC(C)(O)c3ccncc3)cc2c(-c2ccc(Cl)cc2)c1[C@H](OC(C)(C)C)C(=O)O` (stereo partly drawn) [Example 12, (2S)-2-tert-Butoxy-2-(1-(4-chlorophenyl)-7-(3-hydroxy-3-(pyridin-4-yl)but-1-ynyl)-3-methylnaphthalen-2-yl)acetic acid] is 1.8-fold lower in EC50: 56 nM for the first, 32 nM for the second. The second is the more potent here.

Same assay, conditions: Human immunodeficiency virus 1, IIIB, MT4, 120 h, Table II; MT-4 cells infected with HIV-IIIb, 5 days incubation, CellTiter-Glo readout

`Cc1cc2cc(-c3cnc(N)nc3)ccc2c(-c2ccc3c4c(ccnc24)CCO3)c1[C@H](OC(C)(C)C)C(=O)O` (atropisomer, axis not shown) [Example 55] and `Cc1cc2cc(-c3cncnc3)ccc2c(-c2ccc3c4c(ccnc24)CCO3)c1[C@H](OC(C)(C)C)C(=O)O` (atropisomer, axis not shown) [Example 66] are within 1.5-fold of each other in EC50: 7.53 nM for the first, 9.88 nM for the second.

First: Cc1cc2ccccc2c(-c2ccc3c4c(ccnc24)CCO3)c1C(OC(C)(C)CF)C(=O)O (stereo not shown) [Example 103]
Second: Cc1cc2ccccc2c(-c2ccc3c4c(ccnc24)CCO3)c1[C@H](OC(C)(C)CF)C(=O)O (atropisomer, axis not shown) [Example 102]
The EC50 of the first is 1.7-fold higher: 30.7 nM for the first, 18 nM for the second.

Compared with `CC(=O)Nc1c(C)c([C@H](OC(C)(C)C)C(=O)O)c(-c2ccc3c4c(ccnc24)CCO3)c2ccccc12` (atropisomer, axis not shown) [Example 89], `COc1c(C)c([C@H](OC(C)(C)C)C(=O)O)c(-c2ccc3c4c(ccnc24)CCO3)c2ccccc12` (atropisomer, axis not shown) [Example 82] is 5-fold lower in EC50: 218 nM for the first, 43.2 nM for the second. The second is the more potent here.

Compared with `Cc1ccc2c(-c3ccc4c5c(ccnc35)CCO4)c([C@H](OC(C)(C)CF)C(=O)O)c(C)cc2c1` (atropisomer, axis not shown) [Example 64], `Cc1ccc2c(-c3ccc4c5c(ccnc35)CCO4)c([C@@H](OC(C)(C)CF)C(=O)O)c(C)cc2c1` (atropisomer, axis not shown) [Example 63] is 190-fold higher in EC50: 8.72 nM for the first, 1680 nM for the second. The first is the more potent here.

Going from `Cc1cc2ccccc2c(-c2ccc3c4c(ccnc24)CCO3)c1[C@@H](OC(C)(C)CCl)C(=O)O` (atropisomer, axis not shown) [Example 98] to `Cc1cc2ccccc2c(-c2ccc3c4c(ccnc24)CCO3)c1[C@@H](OC(C)(CF)CF)C(=O)O` (atropisomer, axis not shown) [Example 104], the EC50 falls from 19400 nM to 2950 nM (6.6-fold). The second is the more potent here.

Going from `Cc1cc2cc(-c3cnc(N4CCN(C)CC4)nc3)ccc2c(-c2ccc3c4c(ccnc24)CCO3)c1[C@H](OC(C)(C)C)C(=O)O` (atropisomer, axis not shown) [Example 35] to `Cc1cc2cc(-c3cnc(N4CCCC4)nc3)ccc2c(-c2ccc3c4c(ccnc24)CCO3)c1[C@H](OC(C)(C)C)C(=O)O` (atropisomer, axis not shown) [Example 51], the EC50 rises from 4.4 nM to 20.5 nM (4.7-fold). The first is the more potent here.

Going from `Cc1cc2ccc(-c3cccc(-c4ccc5c(cnn5C)c4)c3)cc2c(-c2ccc(Cl)cc2)c1[C@H](OC(C)(C)C)C(=O)O` [Example 88] to `CCOc1ncc(-c2ccc3c(-c4ccc5c6c(ccnc46)CCO5)c([C@H](OC(C)(C)C)C(=O)O)c(C)cc3c2)c(OCC)n1` (atropisomer, axis not shown) [Example 50], the EC50 falls from 3490 nM to 45.1 nM (77-fold). The second is the more potent here.

Going from `Cc1ccc2c(-c3ccc4c5c(ccnc35)CCO4)c(C(OC(C)(C)CF)C(=O)O)c(C)cc2c1` (stereo not shown) [Example 65] to `Cc1c([C@H](OC(C)(C)C)C(=O)O)c(-c2ccc3c4c(ccnc24)CCO3)c2ccccc2c1N` (atropisomer, axis not shown) [Example 93], the EC50 falls from 12.1 nM to 7.92 nM (1.5-fold). The second is the more potent here.

Same assay, conditions: Table I; MT-4 cells infected with HIV-IIIb, 5 days incubation, CellTiter-Glo readout

Going from `COCC(C)(C)O[C@H](C(=O)O)c1c(C)cc2ccccc2c1-c1ccc2c3c(ccnc13)CCO2` (atropisomer, axis not shown) [Example 25, (2S)-2-((R)-1-(2,3-dihydropyrano[4,3,2-de]quinolin-7-yl)-3-methylnaphthalen-2-yl)-2-(1-methoxy-2-methylpropan-2-yloxy)acetic acid] to `CCOCC(C)(C)O[C@H](C(=O)O)c1c(C)cc2ccccc2c1-c1ccc2c3c(ccnc13)CCO2` (atropisomer, axis not shown) [Example 28, (2S)-2-((S)-1-(2,3-Dihydropyrano[4,3,2-de]quinolin-7-yl)-3-methylnaphthalen-2-yl)-2-(1-ethoxy-2-methylpropan-2-yloxy)acetic acid], the EC50 rises from 37 nM to 1230 nM (33-fold). The first is the more potent here.

Same assay, conditions: Table II; MT-4 cells infected with HIV-IIIb, 5 days incubation, CellTiter-Glo readout

Going from `CC(C)(C)O[C@H](C(=O)O)c1c2c(c3ccccc3c1-c1ccc3c4c(ccnc14)CCO3)CCC2` (atropisomer, axis not shown) [Example 34] to `CC(C)(C)O[C@H](C(=O)O)c1c2c(c3ccccc3c1-c1ccc3c4c(ccnc14)CCO3)OCC2` (atropisomer, axis not shown) [Example 79], the EC50 rises from 60 nM to 9910 nM (170-fold). The first is the more potent here.

First: Cc1cc2cc(-c3cnc(-c4cncnc4)nc3)ccc2c(-c2ccc3c4c(ccnc24)CCO3)c1[C@H](OC(C)(C)C)C(=O)O (atropisomer, axis not shown) [Example 39]
Second: Cc1cc2cc(-c3cnc(-c4ccccc4)nc3)ccc2c(-c2ccc3c4c(ccnc24)CCO3)c1[C@H](OC(C)(C)C)C(=O)O (atropisomer, axis not shown) [Example 37]
The EC50 of the first is 2-fold higher: 8680 nM for the first, 4450 nM for the second. The second is the more potent here.

Going from `Cc1cc2cc(-c3cncnc3N)ccc2c(-c2ccc3c4c(ccnc24)CCO3)c1[C@H](OC(C)(C)C)C(=O)O` (atropisomer, axis not shown) [Example 54] to `Cc1cc2cc(-c3cncnc3C)ccc2c(-c2ccc3c4c(ccnc24)CCO3)c1[C@H](OC(C)(C)C)C(=O)O` (atropisomer, axis not shown) [Example 56], the EC50 falls from 19400 nM to 30.5 nM (640-fold). The second is the more potent here.

`Cc1cc2c(C)c(-c3cnc(N(C)C)nc3)ccc2c(-c2ccc3c4c(ccnc24)CCO3)c1[C@H](OC(C)(C)C)C(=O)O` (atropisomer, axis not shown) [Example 73] and `Cc1cc2c(C)c(-c3cnc(N)nc3)ccc2c(-c2ccc3c4c(ccnc24)CCO3)c1[C@H](OC(C)(C)C)C(=O)O` (atropisomer, axis not shown) [Example 75] are within 1.5-fold of each other in EC50: 8.95 nM for the first, 6.95 nM for the second.

Compared with `Cc1cc2c(C)c(-c3cncnc3)ccc2c(-c2ccc3c4c(ccnc24)CCO3)c1[C@H](OC(C)(C)C)C(=O)O` (atropisomer, axis not shown) [Example 81], `Cc1cc2cc(-c3cncnc3N)ccc2c(-c2ccc3c4c(ccnc24)CCO3)c1[C@H](OC(C)(C)C)C(=O)O` (atropisomer, axis not shown) [Example 53] is 45-fold lower in EC50: 3370 nM for the first, 74.2 nM for the second.

Going from `Cc1cc2cc(C#Cc3cncnc3)ccc2c(-c2ccc3c4c(ccnc24)CCO3)c1[C@H](OC(C)(C)C)C(=O)O` (atropisomer, axis not shown) [Example 42] to `Cc1cc2c(C)c(-c3cncnc3)ccc2c(-c2ccc3c4c(ccnc24)CCO3)c1[C@H](OC(C)(C)C)C(=O)O` (atropisomer, axis not shown) [Example 80], the EC50 falls from 53200 nM to 21.1 nM (2500-fold). The second is the more potent here.

Going from `CC(C)(C)O[C@H](C(=O)O)c1c2c(c3ccccc3c1-c1ccc3c4c(ccnc14)CCO3)CCC2` (atropisomer, axis not shown) [Example 33] to `CC(C)(C)O[C@H](C(=O)O)c1c(-c2ccc3c4c(ccnc24)CCO3)c2ccccc2c2occc12` (atropisomer, axis not shown) [Example 76], the EC50 falls from 1660 nM to 117 nM (14-fold). The second is the more potent here.

First: Cc1cc2cccc(F)c2c(-c2ccc3c4c(ccnc24)CCO3)c1[C@H](OC(C)(C)C)C(=O)O (atropisomer, axis not shown) [Example 69]
Second: Cc1cc2cc(-c3ccc4c(cnn4C)c3)ccc2c(-c2ccc3c4c(ccnc24)CCO3)c1[C@H](OC(C)(C)C)C(=O)O (atropisomer, axis not shown) [Example 45]
The EC50 of the first is 31-fold lower: 11.3 nM for the first, 354 nM for the second.
